Legend:
[1] = target: T1, Serine/threonine-protein kinase ULK1 (Homo sapiens) (UniProt O75385); test: ULK1 SGC Tm panel (DSF); conditions: for ΔTm: Compound concentration 10.0 uM
T1 sequence (whole entry): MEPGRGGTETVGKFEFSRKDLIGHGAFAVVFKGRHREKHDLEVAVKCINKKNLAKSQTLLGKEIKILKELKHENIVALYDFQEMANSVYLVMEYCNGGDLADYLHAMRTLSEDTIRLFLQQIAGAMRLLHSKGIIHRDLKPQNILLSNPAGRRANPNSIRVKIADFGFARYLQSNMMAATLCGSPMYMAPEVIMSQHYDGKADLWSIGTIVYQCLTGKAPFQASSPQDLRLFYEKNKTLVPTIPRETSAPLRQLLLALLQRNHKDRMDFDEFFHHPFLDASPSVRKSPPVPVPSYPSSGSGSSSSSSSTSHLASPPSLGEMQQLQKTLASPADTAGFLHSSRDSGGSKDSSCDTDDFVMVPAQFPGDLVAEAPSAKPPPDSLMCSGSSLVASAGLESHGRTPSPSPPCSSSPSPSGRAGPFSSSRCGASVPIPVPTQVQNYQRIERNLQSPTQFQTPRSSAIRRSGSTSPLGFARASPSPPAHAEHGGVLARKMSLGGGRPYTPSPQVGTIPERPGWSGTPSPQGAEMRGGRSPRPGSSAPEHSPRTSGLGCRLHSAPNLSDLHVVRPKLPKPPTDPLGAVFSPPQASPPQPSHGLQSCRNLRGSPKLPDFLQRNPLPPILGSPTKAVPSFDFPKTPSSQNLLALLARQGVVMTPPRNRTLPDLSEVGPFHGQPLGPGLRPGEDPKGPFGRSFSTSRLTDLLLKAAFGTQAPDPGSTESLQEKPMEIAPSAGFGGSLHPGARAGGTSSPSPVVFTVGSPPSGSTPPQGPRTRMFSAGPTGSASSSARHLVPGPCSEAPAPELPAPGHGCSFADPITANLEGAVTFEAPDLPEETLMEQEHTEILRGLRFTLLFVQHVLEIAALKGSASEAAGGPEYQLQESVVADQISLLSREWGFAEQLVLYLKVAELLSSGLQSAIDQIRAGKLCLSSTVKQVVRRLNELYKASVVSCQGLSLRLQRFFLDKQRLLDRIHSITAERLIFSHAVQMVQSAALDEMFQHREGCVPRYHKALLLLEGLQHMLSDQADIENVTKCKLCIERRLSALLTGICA

[2] = target: T2, Dual specificity protein kinase TTK (Homo sapiens) (UniProt P33981); test: TTK SGC Tm panel (DSF); conditions: for ΔTm: Compound concentration 10.0 uM
T2 sequence (whole entry): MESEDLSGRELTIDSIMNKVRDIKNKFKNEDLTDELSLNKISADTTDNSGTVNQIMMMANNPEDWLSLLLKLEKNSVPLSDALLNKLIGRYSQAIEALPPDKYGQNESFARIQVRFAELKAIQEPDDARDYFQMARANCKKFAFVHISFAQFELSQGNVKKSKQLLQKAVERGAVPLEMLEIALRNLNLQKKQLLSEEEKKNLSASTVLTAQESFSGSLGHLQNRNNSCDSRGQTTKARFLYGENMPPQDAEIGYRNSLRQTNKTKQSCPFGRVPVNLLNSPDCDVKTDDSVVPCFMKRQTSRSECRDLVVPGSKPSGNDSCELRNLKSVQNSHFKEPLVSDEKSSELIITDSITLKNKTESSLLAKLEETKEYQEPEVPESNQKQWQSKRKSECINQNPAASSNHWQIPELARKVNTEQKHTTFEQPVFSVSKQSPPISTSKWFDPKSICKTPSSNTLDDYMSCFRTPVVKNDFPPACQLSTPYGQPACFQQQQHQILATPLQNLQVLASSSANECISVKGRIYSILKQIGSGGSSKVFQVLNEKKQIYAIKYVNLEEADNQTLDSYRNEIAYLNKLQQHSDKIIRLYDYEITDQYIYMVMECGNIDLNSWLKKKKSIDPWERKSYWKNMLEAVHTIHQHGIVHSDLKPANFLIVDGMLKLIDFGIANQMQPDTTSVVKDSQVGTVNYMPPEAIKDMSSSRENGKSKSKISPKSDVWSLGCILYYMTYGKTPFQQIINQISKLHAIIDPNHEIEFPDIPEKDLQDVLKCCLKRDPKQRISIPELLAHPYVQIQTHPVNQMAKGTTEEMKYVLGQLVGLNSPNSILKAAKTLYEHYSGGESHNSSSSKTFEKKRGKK

[3] = target: Cyclin-dependent kinase-like 1 (Homo sapiens) (UniProt Q00532); test: CDKL1 SGC Tm panel (DSF); conditions: for ΔTm: Compound concentration 10.0 uM
[4] = target: D(1A) dopamine receptor (Homo sapiens) (UniProt P21728); conditions: Compound concentration 10.0 uM
[5] = target: T3, D(4) dopamine receptor (Homo sapiens) (UniProt P21917); conditions: Compound concentration 10.0 uM
T3 sequence (whole entry): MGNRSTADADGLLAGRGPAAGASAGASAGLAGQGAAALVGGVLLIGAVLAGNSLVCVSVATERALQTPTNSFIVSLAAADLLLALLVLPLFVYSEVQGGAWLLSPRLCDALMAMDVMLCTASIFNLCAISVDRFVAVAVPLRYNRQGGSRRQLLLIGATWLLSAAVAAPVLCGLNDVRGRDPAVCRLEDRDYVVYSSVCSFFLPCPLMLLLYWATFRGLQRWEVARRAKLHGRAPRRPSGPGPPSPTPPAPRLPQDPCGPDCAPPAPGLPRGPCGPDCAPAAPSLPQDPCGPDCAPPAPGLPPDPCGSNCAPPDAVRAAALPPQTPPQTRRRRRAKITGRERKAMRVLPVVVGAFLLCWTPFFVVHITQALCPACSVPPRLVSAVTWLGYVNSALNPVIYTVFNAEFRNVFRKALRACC

[6] = target: T4, Serine/threonine-protein kinase 4 (Homo sapiens) (UniProt Q13043); test: STK4 SGC Tm panel (DSF); conditions: for ΔTm: Compound concentration 10.0 uM
T4 sequence (whole entry): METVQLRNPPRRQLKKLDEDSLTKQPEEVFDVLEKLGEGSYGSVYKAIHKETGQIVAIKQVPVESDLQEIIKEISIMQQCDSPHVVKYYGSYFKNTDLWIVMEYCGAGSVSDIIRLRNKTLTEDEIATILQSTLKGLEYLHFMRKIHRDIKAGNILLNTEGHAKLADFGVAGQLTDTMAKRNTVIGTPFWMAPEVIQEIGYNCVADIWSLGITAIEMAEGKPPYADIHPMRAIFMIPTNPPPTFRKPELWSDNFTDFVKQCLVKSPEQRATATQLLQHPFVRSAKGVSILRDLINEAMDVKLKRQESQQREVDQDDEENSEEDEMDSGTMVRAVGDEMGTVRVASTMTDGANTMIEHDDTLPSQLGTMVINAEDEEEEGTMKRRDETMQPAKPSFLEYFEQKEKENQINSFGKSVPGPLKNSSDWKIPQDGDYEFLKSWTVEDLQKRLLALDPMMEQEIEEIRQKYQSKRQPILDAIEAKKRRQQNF

Chain of D(1A) dopamine receptor (Homo sapiens) (P21728 whole entry): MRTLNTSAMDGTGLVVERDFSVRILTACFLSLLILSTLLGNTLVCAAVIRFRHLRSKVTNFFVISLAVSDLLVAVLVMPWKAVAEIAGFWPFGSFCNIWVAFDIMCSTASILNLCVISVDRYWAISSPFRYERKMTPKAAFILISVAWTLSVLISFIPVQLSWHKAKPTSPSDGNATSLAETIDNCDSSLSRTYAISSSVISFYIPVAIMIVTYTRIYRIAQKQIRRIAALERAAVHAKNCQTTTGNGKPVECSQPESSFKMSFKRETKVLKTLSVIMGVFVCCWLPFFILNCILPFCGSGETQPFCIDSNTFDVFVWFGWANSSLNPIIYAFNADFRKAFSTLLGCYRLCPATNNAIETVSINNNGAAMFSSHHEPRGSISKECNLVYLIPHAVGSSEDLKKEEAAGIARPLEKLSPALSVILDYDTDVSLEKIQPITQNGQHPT
Chain of Cyclin-dependent kinase-like 1 (Homo sapiens) (Q00532 whole entry): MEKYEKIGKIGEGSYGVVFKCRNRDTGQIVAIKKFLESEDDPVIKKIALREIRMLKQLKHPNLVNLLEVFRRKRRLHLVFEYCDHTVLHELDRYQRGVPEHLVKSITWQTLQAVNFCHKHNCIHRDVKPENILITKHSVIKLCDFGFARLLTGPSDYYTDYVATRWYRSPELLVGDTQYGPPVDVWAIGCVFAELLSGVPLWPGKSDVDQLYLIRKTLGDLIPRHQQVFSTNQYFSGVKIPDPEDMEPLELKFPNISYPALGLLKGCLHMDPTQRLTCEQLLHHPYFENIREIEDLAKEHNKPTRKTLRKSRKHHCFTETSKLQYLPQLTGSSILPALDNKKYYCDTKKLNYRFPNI

Row | Compound | delta Tm Staurosporine positive control [1] | ΔTm [1] | delta Tm Staurosporine positive control [2] | ΔTm [2] | delta Tm Staurosporine positive control [3] | ΔTm [3] | inhibition [4] [%] | inhibition [5] [%] | delta Tm Staurosporine positive control [6] | ΔTm [6]
1 | CCC[C@H]1CNCc2c1[nH]c(=O)c(C#N)c2N1CCC2(CC1)CC2 | 14 | 0.0473 | 7.9 | 0.222 | 7.07 | -0.0258 | -2.37 | 15.9 | 16.2 | -0.568
2 | CCC[C@@H]1CNCc2c1[nH]c(=O)c(C#N)c2N1CCC2(CC1)CC2 | 14 | 0.234 | 7.9 | 0.316 | 7.07 | -0.229 | 11 | 18.8 | 16.2 | -0.519

— ChEMBL document CHEMBL5303765, “Data for DCP probe BAY-7081” (2023)
